Data on 15 molecules can be found in US9592221B2, “Antibacterial agents: aryl myxopyronin derivatives” (priority 2012, dated 2017).

Converted amounts (≈) assume the structure as drawn. A value given as a limit tells only on which side of the number the result lay.

One may read the IC50 as the point on the concentration scale where inhibition reaches its midpoint.

The target in assay [1] is E. coli RNA polymerase σ^70 holoenzyme (Escherichia coli, UniProt P0A8T7+P0A8V2). The assay can be described thus: Fluorescence-detected RNA polymerase assay, E. coli RNA polymerase. As to conditions: read-out: IC50 E. coli RNAP. Type of assay: biochemical.
Assay [2] relates to Staphylococcus aureus ATCC 12600. The assay can be described thus: MIC, spiral gradient endpoint assay, S. aureus ATCC 12600. Type of assay: cell-based. The conditions noted are these: ATCC12600; Staphylococcus aureus ATCC 12600.
For assay [3], the system named is Acinetobacter baumannii ATCC 19606. The assay can be described thus: MIC, spiral gradient endpoint assay, A. baumannii. Type of assay: cell-based. As to conditions: ATCC19606; Acinetobacter baumannii ATCC 19606.
Assay [4] relates to Escherichia coli D21f2tolC. Kind of assay: MIC, spiral gradient endpoint assay, E. coli D21f2tolC. Type of assay: cell-based. The conditions noted are these: Escherichia coli, D21F2TOLC, read-out: MIC E. coli D21f2toIC.
The test system of assay [5] is Bacillus anthracis Vollum 1b. Kind of assay: microbe, parasite or virus in culture. Type of assay: cell-based. The conditions noted are these: Bacillus anthracis, VOLLUM1B, read-out: MIC B. anthracis Vollum-1b.
Assay [6] concerns Francisella tularensis SCHU4. Kind of assay: microbe, parasite or virus in culture. Type of assay: cell-based. As to conditions: Francisella tularensis, SCHU4, read-out: MIC F. tularensis SCHU4.
The test system of the next assay is Burkholderia mallei CHN7. Kind of assay: microbe, parasite or virus in culture. Type of assay: cell-based. The conditions noted are these: Burkholderia mallei, CHN7, read-out: MIC B. mallei CHN7.
The test system of assay [7] is Burkholderia pseudomallei Human/Blood/OH/US/1994. The assay can be described thus: microbe, parasite or virus in culture. Type of assay: cell-based. As to conditions: Burkholderia pseudomallei, read-out: MIC B. pseudomallei Human/Blood/OH.
The next assay concerns Brucella melitensis 16M. The assay can be described thus: microbe, parasite or virus in culture. Type of assay: cell-based. As to conditions: Brucella melitensis, 16M, read-out: MIC B. melitensis 16M.
The subject of assay [8] is Mycobacterium tuberculosis H37Rv. The assay can be described thus: MIC, microplate Alamar Blue assay, M. tuberculosis. Type of assay: cell-based. Background: Alamar Blue is a resazurin reagent that responds to reducing activity.

Chain of E. coli RNA polymerase σ^70 holoenzyme (P0A8T7 whole entry): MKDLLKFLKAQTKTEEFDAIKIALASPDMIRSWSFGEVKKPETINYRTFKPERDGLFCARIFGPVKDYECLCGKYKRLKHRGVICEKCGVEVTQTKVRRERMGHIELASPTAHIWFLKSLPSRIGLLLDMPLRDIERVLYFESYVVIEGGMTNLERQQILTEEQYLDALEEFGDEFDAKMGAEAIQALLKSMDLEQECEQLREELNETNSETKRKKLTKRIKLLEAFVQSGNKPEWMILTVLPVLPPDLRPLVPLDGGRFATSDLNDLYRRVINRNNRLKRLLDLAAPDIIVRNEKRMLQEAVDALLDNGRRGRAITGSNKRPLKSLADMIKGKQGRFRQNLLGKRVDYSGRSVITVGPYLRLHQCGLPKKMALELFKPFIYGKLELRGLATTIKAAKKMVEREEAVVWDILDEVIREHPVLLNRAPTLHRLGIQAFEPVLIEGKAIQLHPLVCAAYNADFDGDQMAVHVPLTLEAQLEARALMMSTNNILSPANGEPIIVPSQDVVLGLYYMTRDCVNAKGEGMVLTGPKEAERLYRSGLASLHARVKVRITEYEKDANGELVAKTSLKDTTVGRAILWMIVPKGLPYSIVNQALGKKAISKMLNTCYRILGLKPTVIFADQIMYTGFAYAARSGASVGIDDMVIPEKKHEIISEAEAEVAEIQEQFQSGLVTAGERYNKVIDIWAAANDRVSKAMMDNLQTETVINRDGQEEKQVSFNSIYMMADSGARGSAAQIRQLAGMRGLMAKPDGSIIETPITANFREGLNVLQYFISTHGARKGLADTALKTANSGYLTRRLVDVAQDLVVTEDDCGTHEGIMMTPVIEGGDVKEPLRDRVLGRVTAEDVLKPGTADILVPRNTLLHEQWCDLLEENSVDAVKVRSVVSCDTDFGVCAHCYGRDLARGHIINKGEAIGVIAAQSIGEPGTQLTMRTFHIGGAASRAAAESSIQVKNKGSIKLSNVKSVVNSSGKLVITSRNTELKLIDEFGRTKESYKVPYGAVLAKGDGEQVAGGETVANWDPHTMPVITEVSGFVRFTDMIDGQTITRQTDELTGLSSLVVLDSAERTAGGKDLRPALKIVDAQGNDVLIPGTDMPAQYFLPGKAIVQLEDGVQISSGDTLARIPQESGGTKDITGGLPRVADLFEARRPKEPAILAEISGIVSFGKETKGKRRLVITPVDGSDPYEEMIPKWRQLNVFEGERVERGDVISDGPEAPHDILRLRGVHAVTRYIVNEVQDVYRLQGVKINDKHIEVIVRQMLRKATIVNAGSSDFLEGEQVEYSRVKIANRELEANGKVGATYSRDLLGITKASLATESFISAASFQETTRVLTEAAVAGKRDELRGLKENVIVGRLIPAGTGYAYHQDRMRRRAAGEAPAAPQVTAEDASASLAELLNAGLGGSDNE
Chain of E. coli RNA polymerase σ^70 holoenzyme (P0A800 whole entry, further chain): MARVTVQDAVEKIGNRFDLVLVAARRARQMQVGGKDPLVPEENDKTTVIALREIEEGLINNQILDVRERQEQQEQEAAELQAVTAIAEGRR
Chain of E. coli RNA polymerase σ^70 holoenzyme (P0A8V2 whole entry): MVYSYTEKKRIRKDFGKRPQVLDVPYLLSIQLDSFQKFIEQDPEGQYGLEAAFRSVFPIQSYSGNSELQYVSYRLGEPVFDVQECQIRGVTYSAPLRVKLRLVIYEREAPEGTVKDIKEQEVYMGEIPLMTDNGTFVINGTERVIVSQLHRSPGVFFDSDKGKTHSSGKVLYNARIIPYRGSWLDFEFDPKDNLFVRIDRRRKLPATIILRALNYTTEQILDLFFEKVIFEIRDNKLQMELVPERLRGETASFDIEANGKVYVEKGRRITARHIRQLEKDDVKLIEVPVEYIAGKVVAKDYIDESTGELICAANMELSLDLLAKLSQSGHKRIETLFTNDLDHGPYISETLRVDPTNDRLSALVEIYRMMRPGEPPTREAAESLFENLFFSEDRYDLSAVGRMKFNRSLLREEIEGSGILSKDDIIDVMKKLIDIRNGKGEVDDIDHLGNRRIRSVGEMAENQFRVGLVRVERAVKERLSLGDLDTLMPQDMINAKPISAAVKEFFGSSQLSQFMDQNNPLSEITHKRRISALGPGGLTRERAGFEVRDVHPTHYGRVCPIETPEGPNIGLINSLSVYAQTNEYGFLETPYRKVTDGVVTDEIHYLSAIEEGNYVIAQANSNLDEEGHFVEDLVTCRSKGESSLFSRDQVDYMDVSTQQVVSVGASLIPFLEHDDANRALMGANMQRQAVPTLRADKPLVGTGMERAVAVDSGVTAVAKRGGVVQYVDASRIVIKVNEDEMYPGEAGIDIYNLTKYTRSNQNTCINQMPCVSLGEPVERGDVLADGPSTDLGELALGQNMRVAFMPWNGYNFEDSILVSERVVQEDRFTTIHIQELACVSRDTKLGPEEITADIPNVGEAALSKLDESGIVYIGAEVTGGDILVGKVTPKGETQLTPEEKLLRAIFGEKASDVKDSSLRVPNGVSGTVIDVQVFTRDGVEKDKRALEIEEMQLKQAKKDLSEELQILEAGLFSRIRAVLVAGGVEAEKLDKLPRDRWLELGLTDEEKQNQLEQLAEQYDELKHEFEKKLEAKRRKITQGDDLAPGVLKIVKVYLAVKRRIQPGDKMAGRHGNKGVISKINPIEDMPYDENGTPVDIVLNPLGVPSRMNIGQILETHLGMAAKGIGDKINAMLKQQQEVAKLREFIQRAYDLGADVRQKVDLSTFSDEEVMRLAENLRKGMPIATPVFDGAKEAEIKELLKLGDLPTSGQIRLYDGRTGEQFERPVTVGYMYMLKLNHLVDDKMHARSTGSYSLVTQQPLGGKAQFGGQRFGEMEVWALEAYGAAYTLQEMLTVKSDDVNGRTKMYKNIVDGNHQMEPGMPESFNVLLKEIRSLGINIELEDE
Chain of E. coli RNA polymerase σ^70 holoenzyme (P00579 whole entry, further chain): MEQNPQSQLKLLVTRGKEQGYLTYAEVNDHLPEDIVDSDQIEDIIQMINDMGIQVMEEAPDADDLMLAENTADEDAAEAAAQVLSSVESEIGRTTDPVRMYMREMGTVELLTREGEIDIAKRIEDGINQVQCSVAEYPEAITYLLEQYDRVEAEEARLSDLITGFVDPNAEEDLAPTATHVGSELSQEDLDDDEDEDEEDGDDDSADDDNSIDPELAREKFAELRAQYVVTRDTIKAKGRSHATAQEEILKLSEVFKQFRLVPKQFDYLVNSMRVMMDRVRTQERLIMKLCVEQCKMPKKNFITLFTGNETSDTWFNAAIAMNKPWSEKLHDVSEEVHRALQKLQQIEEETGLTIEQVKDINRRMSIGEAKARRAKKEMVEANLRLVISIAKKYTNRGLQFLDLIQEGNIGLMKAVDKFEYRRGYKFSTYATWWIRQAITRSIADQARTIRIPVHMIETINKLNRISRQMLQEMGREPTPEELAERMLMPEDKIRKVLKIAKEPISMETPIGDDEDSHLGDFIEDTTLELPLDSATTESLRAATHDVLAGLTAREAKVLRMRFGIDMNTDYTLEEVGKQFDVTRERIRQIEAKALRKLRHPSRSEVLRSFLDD
Chain of E. coli RNA polymerase σ^70 holoenzyme (P0A7Z4 whole entry, further chain): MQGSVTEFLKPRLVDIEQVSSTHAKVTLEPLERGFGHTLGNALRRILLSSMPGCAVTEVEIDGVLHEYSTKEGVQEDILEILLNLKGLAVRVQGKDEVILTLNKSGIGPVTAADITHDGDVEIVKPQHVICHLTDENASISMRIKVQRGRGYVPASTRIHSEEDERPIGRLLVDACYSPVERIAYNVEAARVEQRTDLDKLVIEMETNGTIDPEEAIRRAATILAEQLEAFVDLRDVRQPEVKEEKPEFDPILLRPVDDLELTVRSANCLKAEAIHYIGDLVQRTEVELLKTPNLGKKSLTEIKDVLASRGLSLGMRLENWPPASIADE

Regarding `COC(=O)N/C=C/CCC(C)c1cc(O)c(C(=O)C(C)=Cc2ccc(OCCC(C)C)cc2)c(=O)o1` (mixture of isomers) [APY50, methyl (E)-5-(4-hydroxy-3-((E/Z)-3-(4-isopentyloxy)phenyl)-2-methacryloyl-2-oxo-2H-pyran-6-yl)hex-1-enylcarbamate], the IC50 in assay [1] was above 6000 nM. Besides, the figures for the MIC in [2], in [3] and in assay [4] were above 40 µg/mL, above 40 µg/mL and 2 µg/mL, respectively.

Consider `COC(=O)N/C=C/CCC(C)c1cc(O)c(C(=O)C(C)=Cc2cccc(OCCC(C)C)c2)c(=O)o1` (mixture of isomers) [APY51, methyl (E)-5-(4-hydroxy-3-((E/Z)-3-(3-isopentyloxy)phenyl)-2-methacryloyl-2-oxo-2H-pyran-6-yl)hex-1-enylcarbamate], for which the IC50 in [1] was 1000 nM. The results for the MIC in [2], in [3] and in [4] were above 40 µg/mL, above 40 µg/mL and 0.5 µg/mL, respectively.

`COC(=O)N/C=C/CCC(C)c1cc(O)c(C(=O)C(C)=Cc2ccc(OCC3CCCO3)cc2)c(=O)o1` (mixture of isomers) [APY54, methyl (E)-5-(4-hydroxy-3-((E/Z)-2-methyl-3-(4-((tetrahydrofuran-2-yl)methoxy)phenyl)acryloyl)-2-oxo-2H-pyran-6-y)hex-1-enylcarbamate]: the IC50 in [1] is above 6000 nM. The MIC in [2] was above 40 µg/mL; in assay [3], above 40 µg/mL; in assay [4] it was 7 µg/mL.

As to `COC(=O)N/C=C/CCC(C)c1cc(O)c(C(=O)C(C)=Cc2ccc(C)cc2)c(=O)o1` (mixture of isomers) [APY57, methyl (E)-5-(4-hydroxy-5-((E/Z)-2-methyl-3-p-tolylacryloyl)-6-oxo-6H-pyran-2-yl)hex-1-enylcarbamate], the IC50 in [1] was above 6000 nM. Further, the MIC in assay [2] is above 40 µg/mL; in assay [3] it was above 40 µg/mL; in assay [4], 1 µg/mL.

Take `COC(=O)N/C=C/CCC(C)c1cc(O)c(C(=O)C(C)=Cc2ccc(CCC3CCCCC3)s2)c(=O)o1` (mixture of isomers) [APY62, methyl (E)-5-(5-((E/Z)-3-(5-(2-cyclohexylethyl)thiophen-2-yl)-2-methylacryloyl)-4-hydroxy-6-oxo-6H-pyran-2-yl)hex-1-enylcarbamate]: the IC50 in assay [1] came to 10 nM. In addition, the MIC in [2] was 2 µg/mL; in assay [3], above 40 µg/mL; in assay [4], 10 µg/mL.

As for `COC(=O)N/C=C/CCC(C)c1cc(O)c(C(=O)C(C)=Cc2ccc(C)s2)c(=O)o1` (mixture of isomers) [APY69, methyl (E)-5-(4-hydroxy-5-((E/Z)-2-methyl-3-(5-methylthiophen-2-yl)acryloyl)-6-oxo-6H-pyran-2-yl)hex-1-enylcarbamate], the IC50 in assay [1] was determined as 1000 nM. Also, the MIC in assay [2] is above 40 µg/mL; in assay [3], above 40 µg/mL; in [4] it was 7 µg/mL.

For the molecule `CCCc1ccc(C=C(C)C(=O)c2c(O)cc(C(C)CC/C=C/NC(=O)OC)oc2=O)cc1` (mixture of isomers) [APY71, methyl (E)-5-(4-hydroxy-5-((E/Z)-2-methyl-3-(4-propylphenyl)acryloyl)-6-oxo-6H-pyran-2-yl)hex-1-enylcarbamate], the IC50 in assay [1] was 400 nM. Also, the MIC in assay [2] was 4 µg/mL; in [3], above 40 µg/mL; in assay [4] it was 0.5 µg/mL; in assay [5], 30 µg/mL; in assay [6], above 50 µg/mL; with Burkholderia mallei CHN7 it was above 50 µg/mL. The MIC in assay [7] is above 50 µg/mL; in the assay with Brucella melitensis 16M, 10 µg/mL.

For the molecule `CCCCCc1ccc(C=C(C)C(=O)c2c(O)cc(C(C)CC/C=C/NC(=O)OC)oc2=O)cc1` (mixture of isomers) [APY72, methyl (E)-5-(4-hydroxy-5-((E/Z)-2-methyl-3-(4-pentylphenyl)acryloyl)-6-oxo-6H-pyran-2-yl)hex-1-enylcarbamate], the IC50 in assay [1] stood at 200 nM. The MIC in assay [2] is 2 µg/mL; in assay [3] it was above 40 µg/mL; in assay [4], 0.2 µg/mL; in assay [5], 3 µg/mL; in assay [6] it was 10 µg/mL; in the assay with Burkholderia mallei CHN7, 10 µg/mL. Besides, the MIC in [7] came out at 50 µg/mL; in the assay with Brucella melitensis 16M it was 2 µg/mL.

As for `CCc1ccc2cc(C=C(C)C(=O)c3c(O)cc(C(C)CC/C=C/NC(=O)OC)oc3=O)oc2c1` (mixture of isomers) [APY110, methyl ((1E)-5-(3-(3-(6-ethylbenzofuran-2-yl)-2-methylacryloyl)-4-hydroxy-2-oxo-2H-pyran-6-yl)hex-1-en-1-yl)carbamate], in [1], the IC50 came to 200 nM. In addition, the MIC in assay [2] is 8 µg/mL; in assay [3], above 40 µg/mL; in [4], 0.3 µg/mL; in assay [8] it was 30 µg/mL.

With `COC(=O)N/C=C/CCC(C)c1cc(O)c(C(=O)C(C)=Cc2cc3ccc(CCC(C)C)cc3o2)c(=O)o1` (mixture of isomers) [APY111, methyl ((1E)-5-(4-hydroxy-3-(3-(6-isopentylbenzofuran-2-yl)-2-methylacryloyl)-2-oxo-2H-pyran-6-yl)hex-1-en-1-yl)carbamate], in assay [1], the IC50 was 50 nM. Also, the MIC in assay [2] was above 40 µg/mL; in assay [3] it was above 40 µg/mL; in assay [4], 0.3 µg/mL.

For the molecule `COC(=O)N/C=C/CCC(C)c1cc(O)c(C(=O)C(C)=Cc2cc3ccc(CCC(F)(F)F)cc3o2)c(=O)o1` (mixture of isomers) [APY112, methyl ((1E)-5-(4-hydroxy-3-(2-methyl-3-(6-(3,3,3-trifluoropropyl)benzofuran-2-yl)acryloyl)-2-oxo-2H-pyran-6-yl)hex-1-en-1-yl)carbamate], the IC50 in [1] turned out to be 300 nM. Moreover, the figures for the MIC in assay [2], in assay [3] and in [4] were above 40 µg/mL, above 40 µg/mL and 0.2 µg/mL, respectively.

In the case of `COC(=O)N/C=C/CCC(C)c1cc(O)c(C(=O)C(C)=Cc2cc3ccc(CCC(F)(F)F)cc3s2)c(=O)o1` (mixture of isomers) [APY114, methyl ((1E)-5-(4-hydroxy-3-(2-methyl-3-(6-(3,3,3-trifluoropropyl)benzo[b]thiophen-2-yl)acryloyl)-2-oxo-2H-pyran-6-yl)hex-1-en-1-yl)carbamate], the IC50 in [1] was 300 nM. Moreover, the MIC in assay [2] is above 40 µg/mL; in [3], above 40 µg/mL; in assay [4], 0.2 µg/mL.

In the case of `COC(=O)N/C=C/CCC(C)c1cc(O)c(C(=O)C(C)=Cc2cc(CCC(F)(F)F)cn2C)c(=O)o1` (mixture of isomers) [APY135, methyl ((1E)-5-(4-hydroxy-3-(2-methyl-3-(1-methyl-4-(3,3,3-trifluoropropyl)-1H-pyrrol-2-yl)acryloyl)-2-oxo-2H-pyran-6-yl)hex-1-en-1-yl)carbamate], the IC50 in assay [1] came out at 100 nM. Also, the MIC in [2] was 10 µg/mL; in [3], above 40 µg/mL; in assay [4] it was 2 µg/mL.

`CCCc1cn(C)c(C=C(C)C(=O)c2c(O)cc(C(C)CC/C=C/NC(=O)OC)oc2=O)n1` (mixture of isomers) [APY143, methyl ((1E)-5-(4-hydroxy-3-(2-methyl-3-(1-methyl-4-propyl-1H-imidazol-2-yl)acryloyl)-2-oxo-2H-pyran-6-yl)hex-1-en-1-yl)carbamate]: in [1], the IC50 was found to be 1000 nM. Also, the MIC in [2] is above 40 µg/mL; in assay [3] it was above 40 µg/mL; in assay [4], 10 µg/mL.

In the case of `COC(=O)N/C=C/CCC(C)c1cc(O)c(C(=O)C(C)=Cc2cnc(N3CCCCC3)s2)c(=O)o1` (centres unmarked) [APY142], the IC50 in assay [1] came to 600 nM. The MIC in assay [2] was 20 µg/mL (≈ 39.9 µM); in [3], above 40 µg/mL; in assay [4], 1 µg/mL (≈ 1.99 µM).
